We go through 18 compounds from patent publication US9926297B2, “Bicyclic AZA compounds as muscarinic M1 receptor and/or M4 receptor agonists” (Heptares Therapeutics Limited, priority 2014, dated 2018).

Assay [1] concerns the target T1, human muscarinic M1 receptor (Homo sapiens, UniProt P11229).
T1 sequence (P11229 1-460): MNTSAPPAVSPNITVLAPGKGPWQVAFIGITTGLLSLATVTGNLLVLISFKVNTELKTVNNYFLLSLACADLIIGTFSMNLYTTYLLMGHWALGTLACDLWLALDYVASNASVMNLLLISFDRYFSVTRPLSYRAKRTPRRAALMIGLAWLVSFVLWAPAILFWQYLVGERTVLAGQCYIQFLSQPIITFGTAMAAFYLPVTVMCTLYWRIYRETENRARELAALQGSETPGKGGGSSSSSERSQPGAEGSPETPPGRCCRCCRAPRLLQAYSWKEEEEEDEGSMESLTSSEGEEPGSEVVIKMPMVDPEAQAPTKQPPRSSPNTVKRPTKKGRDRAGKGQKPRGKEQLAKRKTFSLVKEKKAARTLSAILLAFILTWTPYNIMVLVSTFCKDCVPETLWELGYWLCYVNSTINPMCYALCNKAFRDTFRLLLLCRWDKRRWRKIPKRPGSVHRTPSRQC
The assay can be described thus: Alphascreen Surefire phospho-ERK1/2 functional assay, M1. The assay is classed as cell-based. As to conditions: for EC50: CHO cells stably expressing human M1, phospho-ERK1/2, * = variable results, read-out: pEC50 M1 (converted); for Emax: CHO, read-out: % Emax cf. ACh, M1, CHO cells stably expressing human M1, relative to ACh.

In assay [2] the target is T2, human muscarinic M4 receptor (Homo sapiens, UniProt P08173).
T2 construct: expressed in transfected cells
T2 sequence (P08173 1-479): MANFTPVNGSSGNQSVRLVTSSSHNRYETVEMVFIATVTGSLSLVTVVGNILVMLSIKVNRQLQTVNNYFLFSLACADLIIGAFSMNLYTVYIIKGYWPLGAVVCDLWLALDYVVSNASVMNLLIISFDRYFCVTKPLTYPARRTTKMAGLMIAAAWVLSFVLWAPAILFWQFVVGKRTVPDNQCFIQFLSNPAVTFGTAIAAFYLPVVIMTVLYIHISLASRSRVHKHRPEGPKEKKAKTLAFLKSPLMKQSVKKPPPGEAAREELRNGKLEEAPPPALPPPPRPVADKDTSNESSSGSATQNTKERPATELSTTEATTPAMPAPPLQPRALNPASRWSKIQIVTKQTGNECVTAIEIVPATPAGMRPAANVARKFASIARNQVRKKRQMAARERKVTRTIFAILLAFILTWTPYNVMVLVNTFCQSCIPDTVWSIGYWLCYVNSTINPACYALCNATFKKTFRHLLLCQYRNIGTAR
Put plainly: Alphascreen Surefire phospho-ERK1/2 functional assay, M4. The assay is classed as cell-based. Particulars: for EC50: CHO cells stably expressing human M4, phospho-ERK1/2, * = variable results, read-out: pEC50 M4 (converted); for Emax: CHO, read-out: % Emax cf. ACh, M4, CHO cells stably expressing human M4, relative to ACh; for selectivity for the M4 receptor relative to the M1 receptor: functional assay of Example A.

With `COC(=O)N1CCC2(CC(N3CCC(c4ccnn4C)CC3)C2)C1` (mixture of isomers) [1-20 Mixture of diastereomers, methyl 2-[4-(1-methyl-1H-pyrazol-5-yl)piperidin-1-yl]-6-azaspiro[3.4]octane-6-carboxylate], in assay [1], the EC50 was > 20000 nM and the maximum response (Emax) is 62%. Besides, in assay [2], the EC50 is 1000 nM and the maximum response (Emax) worked out at 56%.

As for `CCOC(=O)N1CCC2(CC(N3CCC(c4nc(C(F)(F)F)c[nH]4)CC3)C2)C1` (single isomer, unassigned) [1-3 Isomer 2, ethyl 2-(4-(4-(trifluoromethyl)-1H-imidazol-2-yl)piperidin-1-yl)-6-azaspiro[3.4]octane-6-carboxylate], the EC50 was 501 nM in assay [1] and 200 nM in assay [2]. Further, the figures for the Emax in assay [1] and in assay [2] were 30% and 41%, respectively.

For `CCOC(=O)N1CCC2(CC(N3CCC(c4nc(C#N)c[nH]4)CC3)C2)C1` (single isomer, unassigned) [1-4 Isomer 2, ethyl 2-[4-(4-cyano-1H-imidazol-2-yl)piperidin-1-yl]-6-azaspiro[3.4]octane-6-carboxylate], in assay [1], the EC50 is 1000 nM and the Emax came out at 55%. Moreover, in assay [2], the EC50 was 251 nM and the Emax stood at 67%.

As to `COC(=O)N1CCC2(CC(N3CCC(c4ncc(C)n4C)CC3)C2)C1` (single isomer, unassigned) [1-9 Isomer 2, methyl 2-[4-(1,5-dimethyl-1H-imidazol-2-yl)piperidin-1-yl]-6-azaspiro[3.4]octane-6-carboxylate], the EC50 in assay [1] is > 20000 nM; in assay [2], 794 nM. Also, the Emax in assay [1] came out at 57%; in assay [2], 48%.

Turning to `CCOC(=O)N1CCC2(CC(N3CCC(c4ncc(C)n4C)CC3)C2)C1` (single isomer, unassigned) [1-10 Isomer 2, ethyl 2-[4-(1,5-dimethyl-1H-imidazol-2-yl)piperidin-1-yl]-6-azaspiro[3.4]octane-6-carboxylate], the EC50 was 5010 nM in assay [1] and 251 nM in assay [2]. Also, the maximum response (Emax) in assay [1] is 62%; in assay [2], 106%.

In the case of `COC(=O)N1CCC2(CC(N3CCC(c4nc(C)cn4C)CC3)C2)C1` (single isomer, unassigned) [1-11 Isomer 2, methyl 2-[4-(1,4-dimethyl-1H-imidazol-2-yl)piperidin-1-yl]-6-azaspiro[3.4]octane-6-carboxylate], in assay [1], the EC50 was 1580 nM and the maximal effect (Emax) amounted to 98%. In assay [2], the EC50 was 251 nM and the Emax came out at 85%.

With `COC(=O)N1CCC2(CC(N3CCC(c4ncc(Cl)n4C)CC3)C2)C1` (single isomer, unassigned) [1-13 Isomer 2, methyl 2-[4-(5-chloro-1-methyl-1H-imidazol-2-yl)piperidin-1-yl]-6-azaspiro[3.4]octane-6-carboxylate], in assay [1], the EC50 was 1580 nM and the maximal effect (Emax) was 61%. Also, in assay [2], the EC50 was 398 nM and the Emax was 86%.

Take `CCOC(=O)N1CCC2(CC(N3CCC(c4cc(N)n[nH]4)CC3)C2)C1` (single isomer, unassigned) [1-19 Isomer 2, ethyl 2-[4-(3-amino-1H-pyrazol-5-yl)piperidin-1-yl]-6-azaspiro[3.4]octane-6-carboxylate]: in assay [1], the EC50 was 794 nM and the Emax was found to be 83%. For the same compound, in assay [2], the EC50 is 7940 nM and the maximal response (Emax) came to 48%.

As for `CCOC(=O)N1CCC2(CC(N3CCC(c4ccn(C)n4)CC3)C2)C1` (single isomer, unassigned) [1-22 Isomer 2, ethyl 2-[4-(1-methyl-1H-pyrazol-3-yl)piperidin-1-yl]-6-azaspiro[3.4]octane-6-carboxylate], the EC50 is 200 nM in assay [1] and > 20000 nM in assay [2]. The Emax in assay [1] came to 47%; in assay [2], 20%.

`CCOC(=O)N1CCC2(CC(N3CCC(c4nnc(CC)[nH]4)CC3)C2)C1` (single isomer, unassigned) [1-27 Isomer 2, ethyl 2-[4-(5-ethyl-1H-1,2,4-triazol-3-yl)piperidin-1-yl]-6-azaspiro[3.4]octane-6-carboxylate]: in assay [1], the EC50 was 1000 nM and the Emax was 27%. Besides, in assay [2], the EC50 was 398 nM and the maximal effect (Emax) worked out at 41%.

As for `CCOC(=O)N1CCC2(CC(N3CCC(c4nnco4)CC3)C2)C1` (single isomer, unassigned) [1-28 Isomer 2, ethyl 2-[4-(1,3,4-oxadiazol-2-yl)piperidin-1-yl]-6-azaspiro[3.4]octane-6-carboxylate], in assay [1], the EC50 is 2000 nM and the Emax was 57%. For the same compound, in assay [2], the EC50 was 501 nM and the maximal effect (Emax) was 60%.

In the case of `CCOC(=O)N1CCC2(CC(N3CCC(c4nc(C)no4)CC3)C2)C1` (single isomer, unassigned) [1-29 Isomer 2, ethyl 2-[4-(3-methyl-1,2,4-oxadiazol-5-yl)piperidin-1-yl]-6-azaspiro[3.4]octane-6-carboxylate], in assay [1], the EC50 was 794 nM and the maximal effect (Emax) amounted to 44%. Also, in assay [2], the EC50 was 126 nM and the maximum response (Emax) amounted to 36%.

Turning to `CCOC(=O)N1CCC2(CC(N3CCC(c4nnn[nH]4)CC3)C2)C1` (single isomer, unassigned) [1-31 Isomer 2, ethyl 2-[4-(1H-tetrazol-5-yl)piperidin-1-yl]-6-azaspiro[3.4]octane-6-carboxylate], in assay [1], the EC50 was 2510 nM and the Emax was 34%. In assay [2], the EC50 is 100 nM and the Emax is 40%.

`CCOC(=O)N1CCC2(CC(N3CCC(n4ccnn4)CC3)C2)C1` (single isomer, unassigned) [1-35 Isomer 2, ethyl 2-[4-(1H-1,2,3-triazol-1-yl)piperidin-1-yl]-6-azaspiro[3.4]octane-6-carboxylate]: in assay [1], the EC50 was 398 nM and the maximal response (Emax) was 80%. For the same compound, in assay [2], the EC50 is 200 nM and the Emax was 61%.

With `COC(=O)N1CCC2(CC(N3CCC(c4nccn4C)CC3)C2)C1` (stereo not drawn) [Example 1-6, methyl 2-[4-(1-methyl-1H-imidazol-2-yl)piperidin-1-yl]-6-azaspiro[3.4]octane-6-carboxylate], the “selectivity for the M4 receptor relative to the M1 receptor” value in assay [2] is “highly selective for the M4 receptor relative to the M1 receptor”.

With `COC(=O)N1CCC2(CC(N3CCC(c4ncc(C)n4C)CC3)C2)C1` (stereo not drawn) [Example 1-9, methyl 2-[4-(1,5-dimethyl-1H-imidazol-2-yl)piperidin-1-yl]-6-azaspiro[3.4]octane-6-carboxylate], the “selectivity for the M4 receptor relative to the M1 receptor” value in assay [2] is on record as “highly selective for the M4 receptor relative to the M1 receptor”.

As for `CCOC(=O)N1CCC2(CC(N3CCC(c4ccnn4C)CC3)C2)C1` (stereo not drawn) [Example 1-21, ethyl 2-[4-(1-methyl-1H-pyrazol-5-yl)piperidin-1-yl]-6-azaspiro[3.4]octane-6-carboxylate], the “selectivity for the M4 receptor relative to the M1 receptor” value in assay [2] is on record as “highly selective for the M4 receptor relative to the M1 receptor”.

In the case of `CCOC(=O)N1CCC2(CC(N3CCC([C@@H]4CCCN4C(=O)NC)CC3)C2)C1` (stereo partly drawn) [Example 2-17, ethyl 2-{4-[(2S)-1-(methylcarbamoyl)pyrrolidin-2-yl]piperidin-1-yl}-6-azaspiro[3.4]octane-6-carboxylate], in assay [2], the “selectivity for the M4 receptor relative to the M1 receptor” value is reported as “highly selective for the M4 receptor relative to the M1 receptor”.
